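Method: 48-hour compound exposure of cells in 96-well plates, five concentrations, linear interpolation of endpoints. GI50 marks 50% less growth.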 Calls of active or inactive are those of the source. Cut-off read from the data, not from the text of the source: active = GI50 up to about 1.1 µM and inactive = higher.
Tests used:
Assay in all cases: NCI anticancer screen, dose series, 48 h
CAKI-1 = system: CAKI-1
KM12 = system: KM12
ACHN = system: ACHN
M14 = system: M14
NCI-H460 = system: NCI-H460
KM-20L2 = system: KM-20L2
T47D = system: T47D
MOLT-4 = system: MOLT-4
SNB-19 = system: SNB-19
NCI/ADR-RES = system: NCI/ADR-RES
SK-MEL-5 = system: SK-MEL-5
SN12C = system: SN12C
UACC-257 = system: UACC-257
IGROV-1 = system: IGROV-1
NCI-H226 = system: NCI-H226
Hs-578T = system: Hs-578T
HL-60 = system: HL-60
HOP-62 = system: HOP-62
SK-MEL-28 = system: SK-MEL-28
MDA-N = system: MDA-N
EKVX = system: EKVX
DMS-114 = system: DMS-114
SF-295 = system: SF-295
RPMI-8226 = system: RPMI-8226
SK-OV-3 = system: SK-OV-3
PC-3 = system: PC-3
MDA-MB-231 = system: MDA-MB-231
U-251 = system: U-251
MDA-MB-435 = system: MDA-MB-435
UACC-62 = system: UACC-62
A498 = system: A498
UO-31 = system: UO-31
CCRF-CEM = system: CCRF-CEM
OVCAR-5 = system: OVCAR-5
SF-539 = system: SF-539
HT-29 = system: HT-29
MCF7 = system: MCF7
NCI-H522 = system: NCI-H522
BT-549 = system: BT-549
COLO 205 = system: COLO 205
SK-MEL-2 = system: SK-MEL-2
LOX IMVI = system: LOX IMVI
HCT-15 = system: HCT-15
K562 = system: K562
786-0 = system: 786-0
OVCAR-4 = system: OVCAR-4
TK-10 = system: TK-10
SW-620 = system: SW-620
HCT-116 = system: HCT-116
DU-145 = system: DU-145
DLD-1 = system: DLD-1
NCI-H23 = system: NCI-H23
OVCAR-3 = system: OVCAR-3
RXF 393 = system: RXF 393
SF-268 = system: SF-268
HOP-92 = system: HOP-92
Malme-3M = system: Malme-3M
SNB-75 = system: SNB-75
A549 = system: A549
XF498 = system: XF498
M19-MEL = system: M19-MEL
OVCAR-8 = system: OVCAR-8
SR = system: SR

Measured: GI50

COC1C(O)=C2C(=O)O/C(C)=C/C=C/C=C/C=C\CC(c3ccccc3)NC(=O)\C=C/C=C\C=C\C=C\[C@@]2(C)[C@@H]1O (stereo partly drawn)
active: CAKI-1 < 20.3 nM | KM12 < 14.6 nM | ACHN < 10 nM | M14 < 37.1 nM | NCI-H460 < 10 nM | KM-20L2 < 10 nM | T47D 23.9 nM | MOLT-4 < 18.1 nM | SNB-19 < 10 nM | NCI/ADR-RES < 10 nM | SK-MEL-5 39.5 nM | SN12C 98.6 nM | UACC-257 < 12.9 nM | IGROV-1 < 21.1 nM | NCI-H226 17.5 nM | Hs-578T < 10 nM | HL-60 < 10 nM | HOP-62 < 33.4 nM | SK-MEL-28 15.5 nM | MDA-N 33 nM | EKVX 35.7 nM | DMS-114 24.9 nM | SF-295 < 10 nM | RPMI-8226 < 10 nM | SK-OV-3 < 21 nM | PC-3 < 10 nM | MDA-MB-231 < 10 nM | U-251 < 10 nM | MDA-MB-435 < 10 nM | UACC-62 67.5 nM | A498 12.9 nM | UO-31 < 16.1 nM | CCRF-CEM < 10 nM | OVCAR-5 23.4 nM | SF-539 < 10 nM | HT-29 < 10 nM | MCF7 < 10 nM | NCI-H522 < 10 nM | BT-549 < 10 nM | COLO 205 10.4 nM | SK-MEL-2 < 21.8 nM | LOX IMVI 17.6 nM | K562 < 10 nM | 786-0 17 nM | OVCAR-4 44.4 nM | TK-10 < 36.1 nM | SW-620 < 10 nM | HCT-116 < 10 nM | DU-145 11.7 nM | DLD-1 < 10 nM | NCI-H23 14.4 nM | OVCAR-3 < 18.9 nM | RXF 393 12.8 nM | SF-268 < 28 nM | HOP-92 < 10 nM | Malme-3M < 22.3 nM | SNB-75 < 10 nM | A549 < 10 nM | XF498 21.3 nM | M19-MEL 53.8 nM | OVCAR-8 15.7 nM | SR < 12.5 nM
< 10 nM: HCT-15

Source: ChEMBL document CHEMBL1201862, “PubChem BioAssay data set” (2004)
